Source: the SangsterLogP compilation

Experiment: method code SF-AS, from DOI: 10.1016/s0006-291x(89)80063-4, PMID: 2916990
Details: pH 7.5
With `O=c1ccn([C@H]2C[C@H](O)[C@@H](CO)O2)c(=O)[nH]1` the logD was -1.51.
In the case of `[N-]=[N+]=N[C@@H]1[C@H](N=[N+]=[N-])[C@@H](CO)O[C@H]1n1cnc2c(N)ncnc21`, the logD is reported as 0.8.
Work on `O=c1[nH]c(=O)n([C@H]2C[C@H](F)[C@@H](CO)O2)cc1Br` yielded a logD of -0.04.
`O=c1ccn([C@H]2C[C@H](F)[C@@H](CO)O2)c(=O)[nH]1` gave a logD of -0.49.
Work on `Nc1ncnc2c1ncn2[C@H]1C[C@H](F)[C@@H](CO)O1` yielded a logD of 0.08.
Molecule `O=c1[nH]c(=O)n([C@H]2CC[C@@H](CO)O2)cc1I` has a logD of -0.61.
For `Nc1nc(N)c2ncn([C@H]3C[C@H](O)[C@@H](CO)O3)c2n1`, the logD was -0.52.
For `Nc1nc2c(ncn2[C@H]2C=C[C@@H](CO)O2)c(=O)[nH]1`, the logD was -1.21.
`O=c1ccn(C2CCC(CO)O2)c(=O)[nH]1` (stereo unspecified) gave a logD of -0.89.
Work on `Nc1nc2c(ncn2[C@H]2CC[C@@H](CO)O2)c(=O)[nH]1` yielded a logD of -1.01.
Molecule `Nc1nc(N)c2ncn([C@H]3CC(F)[C@@H](CO)O3)c2n1` (stereo partly specified) has a logD of 0.05.
`O=c1[nH]c(=O)n([C@H]2CC[C@@H](CO)O2)cc1Cl` showed a logD of -1.11.
Work on `Nc1ncnc2c1ncn2[C@H]1C=C[C@@H](CO)O1` yielded a logD of -0.36.
For `[N-]=[N+]=N[C@H]1C[C@H](n2cnc3c(N)nc(N)nc32)O[C@@H]1CO`, the logD was 0.24.
`[N-]=[N+]=N[C@H]1C[C@H](n2cnc3c(=O)[nH]c(N)nc32)O[C@@H]1CO` gave a logD of -0.33.
With `O=c1[nH]c(=O)n([C@H]2CC[C@@H](CO)O2)cc1Br` the logD was -0.99.
For `[N-]=[N+]=N[C@H]1C[C@H](n2cnc3c(N)ncnc32)O[C@@H]1CO`, the logD was 0.35.
`O=c1[nH]c(=O)n([C@H]2C[C@H](F)[C@@H](CO)O2)cc1Cl` showed a logD of -0.17.
With `[N-]=[N+]=N[C@H]1C[C@H](n2ccc(N)nc2=O)O[C@@H]1CO` the logD was -0.64.
With `O=c1ccn([C@H]2C=C[C@@H](CO)O2)c(=O)[nH]1` the logD was -1.07.
Work on `Nc1nc2c(ncn2[C@H]2C[C@H](F)[C@@H](CO)O2)c(=O)[nH]1` yielded a logD of -0.66.
